Results on one compound are retold here after patent US20230095520A1, “PHARMACEUTICAL COMPOSITION FOR PREVENTING OR TREATING CANCER COMPRISING AZOLE DERIVATIVES OR PHARMACEUTICALLY ACCEPTABLE SALT THEREOF” (Yungjin Pharm. Co., Ltd., priority 2020, published 2023).

Holding throughout (assay): Cancer cell proliferation GI50 (CCK-8)
The test system of one assay is HepG2. Format: cell-based, human. The following applies: HepG2, liver cancer, 72 hours. How it is done:
(§1) The proliferation effect of SY-1365, which is known to have a proliferation inhibitory effect on various carcinoma cells, and the compound of the present invention on various cancer cells was measured and compared as GI50 (half maximal growth inhibitory concentration, the concentration at which cell proliferation is reduced by half).
(§2) Various carcinoma cells were cultured at 37° C. in a humidified condition in the presence of 5% CO2. Each cell cultured in a 96-well cell culture plate was treated with the compound of the present invention and cultured for 72 hours.
(§3) In this example, in order to confirm the proliferation inhibitory effect on various cancer cells, Compound 121 was tested as follows.
(§4) The cells were cultured with a culture medium shown in Table 9 below at 37° C. in a humidified condition in the presence of 5% CO2. Each cell cultured in a 96-well cell culture plate was treated with the compound of the present invention and cultured for 72 hours.

The subject of another assay is Hep3B. Format: cell-based. As to conditions: liver cancer, 72 hours. How it is done: as §1, §2, §3, §4
The subject of another assay is MDA-MB-468. Format: cell-based. As to conditions: MDA-MB-468, breast cancer, 72 hours. How it is done:
as §1, §2, §3, §4

For another assay, the system named is MDA-MB-231. Format: cell-based. The following applies: MDA-MB-231, breast cancer, 72 hours. Here is the method:
as §1, §2, §3, §4

The test system of a further assay is Huh7. It counts as cell-based. As to conditions: Huh7 (Huh-7), liver cancer, 72 hours. Here is the method: as §1, §2, §3, §4

With `CN(C)C/C=C/C(=O)Nc1ccc(C(=O)N[C@@]2(C)CCC[C@@H](Nc3ncc(Cl)c(-c4c[nH]c5ccccc45)n3)C2)nc1` [SY-1365, reference compound], the GI50 in the assay with HepG2 was determined as 19 nM; in the assay with Hep3B, 36 nM; in the assay with MDA-MB-468, 18 nM; with MDA-MB-231 it was 70 nM; in the assay with Huh7 it was 20 nM.
